The assay relates to T cells isolated from mouse spleens. The assay is described as follows: T cell proliferation inhibition (CFSE flow cytometry, anti-CD3/anti-CD28 stimulation). Type of assay: cell-based. The settings on record: mouse spleen T cells, 3 days; for inhibition at 0.01 µM / inhibition at 0.1 µM / inhibition at 1 µM / inhibition at 10 µM / inhibition at 30 µM / inhibition at 50 µM: Mus musculus, T-cell, 72 h, read-out: Proliferation inhibition rate (%). How it is done: To verify the T cell proliferation inhibitory effect of the compounds according to the present invention, the following experiment was performed based on flow cytometry analysis using carboxyfluorescein diacetate succinimidyl ester (CFSE), a fluorescent dye that binds to intracellular molecules via covalent bonds.
Spleens were extracted from 7-week-old C57BL/6 mice, ground, and then separated into single cells using a strainer (40 μm pore size, SPL). Red blood cells were removed using ACK (Ammonium-Chloride-Potassium) lysis buffer to isolate white blood cells.
Finally, using a MACS Magnetic Stand and LS column, T cells were isolated from the spleen.
The T cells isolated from the spleen were resuspended in 1 mL of free medium (RPMI-1640+200 U/mL penicillin+200 μg/mL streptomycin), and 0.3 μL of CFSE (10 mM) was added. The mixture was incubated at 37° C. for 5 minutes.
Free medium (10 mL) was added to stop the reaction, and the cells were centrifuged to obtain the cell pellet.
RPMI 1640 medium containing 10% FBS, 100 U/mL penicillin, 100 μg/mL streptomycin, and resuspended the cells. The cells were then seeded into a 96-well plate at a density of 2×10^5 cells per well and activated with CD3 and CD28 antibodies (0.5 μg/mL each) to activate T cells.
The compound diluted in DMSO was added at concentrations of 10 nM, 100 nM, 1 μM, 10 μM, 30 μM, and 50 μM, with three wells per concentration, and cultured at 37° C. and 5% CO2 for three days. The cells were then analyzed using a FACS Canto instrument.
The proliferation inhibition rate (%) was calculated using the following formula: […]

The structures appear in SMILES notation.

For `CN1CCN(CCCCCCCCCCCCNC(=O)c2cccnc2O)CC1` [Compound 210, 2-Hydroxy-N-(12-(4-methylpiperazin-1-yl)dodecyl)nicotinamide], the inhibition at 0.01 µM (compound 10 nM) is -4.34%. For the same molecule, the inhibition at 0.1 µM (compound 100 nM) is -3.18%. Under “compound 1 μM”, the inhibition at 1 µM amounted to 2.75%. Under “compound 10 μM”, the inhibition at 10 µM is 42.8%. The inhibition at 30 µM (compound 30 μM) is 100%. For the same molecule, the inhibition at 50 µM (compound 50 μM) turned out to be 100%.
`CN1CCN(CCCCCCCCCCCCNC(=O)c2ccc(F)cn2)CC1` [Compound 203, 5-Fluoro-N-(12-(4-methylpiperazin-1-yl)dodecyl)picolinamide]: the inhibition at 0.01 µM (compound 10 nM) was -4.49%. The inhibition at 0.1 µM (compound 100 nM) amounted to 1.16%. Also, the inhibition at 1 µM (compound 1 μM) came to 6.8%. In addition, the inhibition at 10 µM (compound 10 μM) was 100%. Besides, the inhibition at 30 µM (compound 30 μM) amounted to 100%. Besides, for the setting “compound 50 μM”, the inhibition at 50 µM is 100%.
As for `CCOC(=O)C1CCCN(CCCCCCCCCCCCNC(=O)c2cccnc2N)C1` (centres unmarked) [Compound 92, ethyl 1-(12-(2-aminonicotinamido)dodecyl)piperidine-3-carboxylate], the inhibition at 0.01 µM (compound 10 nM) is -9.65%. In addition, for the setting “compound 100 nM”, the inhibition at 0.1 µM turned out to be 100%. In addition, the inhibition at 1 µM (compound 1 μM) was found to be 100%. For the setting “compound 10 μM”, the inhibition at 10 µM was determined as 100%. Where the note is “compound 30 μM”, the inhibition at 30 µM turned out to be 100%. Where the note is “compound 50 μM”, the inhibition at 50 µM was found to be 100%.
On to `CCOC(=O)C1CCN(CCCCCCCCCCCCNC(=O)c2cccnc2N)CC1` [Compound 103, Ethyl 1-(12-(2-aminonicotinamido)dodecyl)piperidine-4-carboxylate], for which, for the setting “compound 10 nM”, the inhibition at 0.01 µM was -6.43%. In addition, under “compound 100 nM”, the inhibition at 0.1 µM is 100%. Moreover, for the setting “compound 1 μM”, the inhibition at 1 µM was determined as 100%. The inhibition at 10 µM (compound 10 μM) was 100%. Besides, under “compound 30 μM”, the inhibition at 30 µM stood at 100%. Moreover, the inhibition at 50 µM (compound 50 μM) came out at 100%.
For the molecule `Nc1ncccc1C(=O)NCCCCCCCCCCCCN1CCC(F)CC1` [Compound 115, 2-amino-N-(12-(4-fluoropiperidin-1-yl)dodecyl)nicotinamide], the inhibition at 0.01 µM (compound 10 nM) was -11.4%. Besides, the inhibition at 0.1 µM (compound 100 nM) was 100%. Also, the inhibition at 1 µM (compound 1 μM) is 100%. For the same molecule, the inhibition at 10 µM (compound 10 μM) came out at 100%. Further, the inhibition at 30 µM (compound 30 μM) turned out to be 100%. For the same molecule, the inhibition at 50 µM (compound 50 μM) is 100%.
Turning to `O=C(NCCCCCCCCCCCCF)c1ccncc1I` [Compound 76, N-(12-fluoro-dodecyl)-3-iodo-isonicotinamide], the inhibition at 0.01 µM (compound 10 nM) turned out to be 0%. In addition, for the setting “compound 100 nM”, the inhibition at 0.1 µM is 0%. In addition, the inhibition at 1 µM (compound 1 μM) came to 0%. Also, the inhibition at 10 µM (compound 10 μM) was -4.95%. Further, the inhibition at 30 µM (compound 30 μM) was found to be 23.7%. In addition, the inhibition at 50 µM (compound 50 μM) is 97.8%.
With `CN1CCN(CCCCCCCCCCCCNC(=O)c2ccccc2Cc2ccccc2)CC1` [Compound 196, 2-Benzyl-N-(12-(4-methylpiperazin-1-yl)dodecyl)benzamide], the inhibition at 0.01 µM (compound 10 nM) amounted to 5.21%. In addition, the inhibition at 0.1 µM (compound 100 nM) stood at 4.05%. The inhibition at 1 µM (compound 1 μM) was determined as 12.3%. Under “compound 10 μM”, the inhibition at 10 µM was 100%. Besides, the inhibition at 30 µM (compound 30 μM) is 100%. Further, the inhibition at 50 µM (compound 50 μM) is 100%.
Turning to `CN1CCN(CCCCCCCCCCCCNC(=O)c2ccnc(-c3ccccn3)c2)CC1` [Compound 195, N-(12-(4-methylpiperazin-1-yl)dodecyl)-[2,2′-bipyridine]-4-carboxamide], the inhibition at 0.01 µM (compound 10 nM) amounted to 1.77%. Moreover, under “compound 100 nM”, the inhibition at 0.1 µM is 2.81%. For the same molecule, the inhibition at 1 µM (compound 1 μM) was -7.83%. Further, the inhibition at 10 µM (compound 10 μM) stood at 100%. In addition, where the note is “compound 30 μM”, the inhibition at 30 µM stood at 100%. Also, the inhibition at 50 µM (compound 50 μM) was 100%.
As to `CC(C)(C)OC(=O)N1CCN(CCCCCCCCCCCCNC(=O)c2cccnc2N)CC1` [Compound 111, tert-butyl-4-(12-(2-aminonicotinamido)dodecyl) piperazine-1-carboxylate], the “Proliferation inhibition rate (%)” value by setting is: (compound 10 nM) 0.00%; (compound 100 nM) 100.00%; (compound 1 μM) 100.00%; (compound 10 μM) 100.00%; (compound 30 μM) 100.00%; (compound 50 μM) 100.00%.
For `Nc1ncccc1C(=O)NCCCCCCCCCCCCN1CCN(C=O)CC1` [Compound 97, 2-amino-N-(12-(4-formylpiperazin-1-yl)dodecyl) nicotinamide], the “Proliferation inhibition rate (%)” value (compound 10 nM) was 3.51%; the “Proliferation inhibition rate (%)” value (compound 100 nM) turned out to be 40.64%; the “Proliferation inhibition rate (%)” value (compound 1 μM) came to 100.00%; the “Proliferation inhibition rate (%)” value (compound 10 μM) came out at 100.00%; the “Proliferation inhibition rate (%)” value (compound 30 μM) worked out at 100.00%; the “Proliferation inhibition rate (%)” value (compound 50 μM) is 100.00%.
`CN1CCN(CCCCCCCCCCCCNC(=O)c2ccncc2N)CC1` [Compound 209, 3-Amino-N-(12-(4-methylpiperazin-1-yl)dodecyl)isonicotinamide]: the inhibition at 0.01 µM (compound 10 nM) was -1.45%. Further, the inhibition at 0.1 µM (compound 100 nM) turned out to be 1.59%. For the same molecule, where the note is “compound 1 μM”, the inhibition at 1 µM is 18.8%. The inhibition at 10 µM (compound 10 μM) turned out to be 84.5%. The inhibition at 30 µM (compound 30 μM) came out at 100%. Where the note is “compound 50 μM”, the inhibition at 50 µM came out at 100%.
Regarding `CC1(C)CCN(CCCCCCCCCCCCNC(=O)c2cccnc2N)CC1` [Compound 102, 2-Amino-N-(12-(4,4-dimethylpiperidin-1-yl)dodecyl)nicotinamide], under “compound 10 nM”, the inhibition at 0.01 µM is -4.53%. Further, the inhibition at 0.1 µM (compound 100 nM) amounted to 100%. In addition, where the note is “compound 1 μM”, the inhibition at 1 µM was determined as 100%. In addition, the inhibition at 10 µM (compound 10 μM) amounted to 100%. Under “compound 30 μM”, the inhibition at 30 µM was 100%. The inhibition at 50 µM (compound 50 μM) is 100%.
In the case of `C=CCN(C)CCCCCCCCCCCCNC(=O)c1cccnc1N` [Compound 96, N-(12-(allyl(methyl)amino)dodecyl)-2-aminonicotinamide], the inhibition at 0.01 µM (compound 10 nM) is -0.58%. Besides, the inhibition at 0.1 µM (compound 100 nM) was found to be 100%. The inhibition at 1 µM (compound 1 μM) turned out to be 100%. Besides, under “compound 10 μM”, the inhibition at 10 µM was found to be 100%. The inhibition at 30 µM (compound 30 μM) was determined as 100%. For the same molecule, the inhibition at 50 µM (compound 50 μM) worked out at 100%.
On to `CN(CCCCCCCCCCCCNC(=O)c1cccnc1N)C1CCCCC1` [Compound 34, 2-Amino-N-(12-(cyclohexyl(methyl)amino)dodecyl) nicotinamide], for which the “Proliferation inhibition rate (%)” value is, setting by setting: (compound 10 nM) 2.08%; (compound 100 nM) 100.00%; (compound 1 μM) 100.00%; (compound 10 μM) 100.00%; (compound 30 μM) 100.00%; (compound 50 μM) 100.00%.
Consider `Nc1ncccc1C(=O)NCCCCCCCCCCCCn1ccc2c(Cl)c(I)cnc21` [Compound 109, 2-Amino-N-(12-(4-chloro-5-iodo-1H-pyrrolo[2,3-b]pyridin-1-yl)dodecyl)nicotinamide], for which the inhibition at 0.01 µM (compound 10 nM) worked out at 0.15%. For the setting “compound 100 nM”, the inhibition at 0.1 µM is 8.48%. Further, the inhibition at 1 µM (compound 1 μM) came to 20.9%. For the setting “compound 10 μM”, the inhibition at 10 µM stood at 100%. The inhibition at 30 µM (compound 30 μM) amounted to 100%. Also, the inhibition at 50 µM (compound 50 μM) came out at 100%.
For `CN1CCN(CCCCCCCCCCCCNC(=O)c2cnccc2N)CC1` [Compound 212, 4-Amino-N-(12-(4-methylpiperazin-1-yl)dodecyl)nicotinamide], the “Proliferation inhibition rate (%)” value reads like this: (compound 10 nM, listed as KP-64, 0.01 µM) −2.89%; (compound 100 nM, listed as KP-64, 0.1 µM) −3.91%; (compound 1 μM, listed as KP-64, 1 µM) −4.34%; (compound 10 μM, listed as KP-64, 10 µM) 20.55%; (compound 30 μM, listed as KP-64, 30 µM) 71.78%.
Turning to `COc1cccc(OC)c1C(=O)NCCCCCCCCCCCCN1CCN(C)CC1` [Compound 218, 2,6-Dimethoxy-N-(12-(4-methylpiperazin-1-yl)dodecyl)benzamide], the inhibition at 0.01 µM (compound 10 nM) stood at 1.31%. The inhibition at 0.1 µM (compound 100 nM) was determined as 2.74%. Further, the inhibition at 1 µM (compound 1 μM) stood at 12.4%. The inhibition at 10 µM (compound 10 μM) stood at 100%. For the same molecule, the inhibition at 30 µM (compound 30 μM) was 100%. The inhibition at 50 µM (compound 50 μM) is 100%.

The values are drawn from US20260183274A1, “PDK1 REGULATORY COMPOUND AND COMPOSITION CONTAINING THE SAME” (PROVIBIO CO., LTD., priority 2024, published 2026).
